From ChEMBL document CHEMBL3352638, “Improving the MDR reversal activity of 6,17-epoxylathyrane diterpenes” (Bioorg Med Chem, 2014)

What was measured:
[1] = system: L5178Y; assay: Antiproliferative activity against mouse L5178Y cells after 72 hrs by MTT assay; format: functional, cell-based
[2] = system: L5178Y; assay: Antiproliferative activity against human MDR1 transfected mouse L5178Y cells after 72 hrs by MTT assay; format: functional, cell-based
[3] = biological target: T1, ATP-dependent translocase ABCB1 (Homo sapiens, UniProt P08183); assay: Inhibition of human MDR1 expressed in mouse L5178Y cells assessed as Rhodamine-123 accumulation measured as fluorescence activity at 20 uM after 20 mins by flow cytometry relative to control; format: cell-based
T1 sequence (P08183 whole entry): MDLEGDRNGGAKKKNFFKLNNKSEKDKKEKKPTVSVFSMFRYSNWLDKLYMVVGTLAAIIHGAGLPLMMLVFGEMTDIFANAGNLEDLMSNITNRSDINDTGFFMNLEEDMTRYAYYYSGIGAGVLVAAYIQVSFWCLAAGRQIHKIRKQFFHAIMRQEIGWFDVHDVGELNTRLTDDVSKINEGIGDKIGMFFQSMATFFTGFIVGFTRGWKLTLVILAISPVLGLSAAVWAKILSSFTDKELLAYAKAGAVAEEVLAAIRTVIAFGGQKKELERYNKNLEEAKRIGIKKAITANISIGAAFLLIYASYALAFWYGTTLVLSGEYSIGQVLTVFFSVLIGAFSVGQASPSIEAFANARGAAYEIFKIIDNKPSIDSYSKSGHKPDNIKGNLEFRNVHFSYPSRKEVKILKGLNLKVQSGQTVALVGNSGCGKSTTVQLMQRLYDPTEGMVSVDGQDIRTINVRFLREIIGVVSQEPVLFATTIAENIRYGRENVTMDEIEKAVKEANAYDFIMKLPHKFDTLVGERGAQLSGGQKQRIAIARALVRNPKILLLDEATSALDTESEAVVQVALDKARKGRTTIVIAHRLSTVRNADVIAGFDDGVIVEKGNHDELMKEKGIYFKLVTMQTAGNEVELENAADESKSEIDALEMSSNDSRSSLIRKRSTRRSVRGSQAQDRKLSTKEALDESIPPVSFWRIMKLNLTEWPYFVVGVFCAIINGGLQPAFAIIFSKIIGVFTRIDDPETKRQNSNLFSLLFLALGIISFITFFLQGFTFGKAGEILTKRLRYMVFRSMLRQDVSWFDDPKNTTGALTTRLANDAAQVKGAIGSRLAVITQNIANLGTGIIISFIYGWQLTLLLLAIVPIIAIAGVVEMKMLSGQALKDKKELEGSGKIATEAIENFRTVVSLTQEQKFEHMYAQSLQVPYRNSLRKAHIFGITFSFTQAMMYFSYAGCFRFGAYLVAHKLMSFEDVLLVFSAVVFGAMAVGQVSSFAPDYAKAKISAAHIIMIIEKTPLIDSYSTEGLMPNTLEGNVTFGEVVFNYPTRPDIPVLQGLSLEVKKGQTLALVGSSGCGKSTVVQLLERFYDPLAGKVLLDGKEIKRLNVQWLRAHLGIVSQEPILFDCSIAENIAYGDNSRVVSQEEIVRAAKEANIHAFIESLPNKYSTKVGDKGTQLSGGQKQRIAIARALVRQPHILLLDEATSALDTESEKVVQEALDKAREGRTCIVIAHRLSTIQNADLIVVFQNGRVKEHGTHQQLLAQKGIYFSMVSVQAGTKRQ

[4] = biological target: T1, ATP-dependent translocase ABCB1; assay: Inhibition of human MDR1 expressed in mouse L5178Y cells assessed as Rhodamine-123 accumulation measured as fluorescence activity at 2 uM after 20 mins by flow cytometry relative to control; format: cell-based
[5] = system: L5178Y; assay: Antiproliferative activity against human MDR1 transfected mouse L5178Y cells after 48 hrs by MTT assay in presence of doxorubicin; format: functional
[6] = biological target: T1, ATP-dependent translocase ABCB1; assay: Inhibition of human MDR1 expressed in mouse L5178Y cells assessed as Rhodamine-123 accumulation measured as fluorescence activity at 40 uM after 20 mins by flow cytometry relative to control; format: cell-based
[7] = biological target: T1, ATP-dependent translocase ABCB1; assay: Inhibition of human MDR1 expressed in mouse L5178Y cells assessed as Rhodamine-123 accumulation after 20 mins by flow cytometry; format: cell-based
[8] = biological target: T1, ATP-dependent translocase ABCB1; assay: Inhibition of human MDR1 expressed in mouse L5178Y cells assessed as Rhodamine-123 accumulation measured as fluorescence activity at 80 uM after 20 mins by flow cytometry relative to control; format: cell-based
[9] = biological target: T1, ATP-dependent translocase ABCB1; assay: Stimulation of vanadate-sensitive ATPase activity of human MDR1 expressed in Sf9 membrane vesicles assessed as inorganic phosphate production at 2 to 100 uM after 10 mins by colorimetry; format: cell membranes; conditions: sf9, 10 min
[10] = biological target: T1, ATP-dependent translocase ABCB1; assay: Inhibition of verapamil-stimulated vanadate-sensitive ATPase activity of human MDR1 expressed in Sf9 membrane vesicles assessed as inorganic phosphate production at 2 to 100 uM after 10 mins by colorimetry; format: cell membranes; conditions: sf9, 10 min

Row | SMILES | IC50 [1] [µM] | IC50 [2] [µM] | Ratio [3] | Ratio [4] | CI [5] | Ratio [6] | inhibition (INH) [7] | Ratio [8] | Activity [9] | inhibition (INH) [10]
1 | C/C1=C\[C@@H]2[C@H](CC[C@]3(CO3)[C@H](OC(=O)c3ccc(C)cc3)[C@H]3[C@@H](OC(=O)c4ccc(C)cc4)[C@@H](C)C[C@]3(O)C1=O)C2(C)C | 36.6 | 47.5 | 26.5 | 3.3 | 0.29 | – | – | – | – | –
2 | CCCCC(CC)C(=O)O[C@@H]1[C@@H]2[C@@H](OC(=O)C(CC)CCCC)[C@]3(CC[C@H]4[C@@H](/C=C(\C)C(=O)[C@@]2(O)C[C@@H]1C)C4(C)C)CO3 (some centres not stated) | 37 | 46.6 | 33.2 | 5.6 | 0.46 | – | – | – | – | –
3 | CCCC(=O)O[C@@H]1[C@@H]2[C@@H](OC(=O)CCC)[C@]3(CC[C@H]4[C@@H](/C=C(\C)C(=O)[C@@]2(OC(=O)CCC)C[C@@H]1C)C4(C)C)CO3 | 56.4 | 84.4 | 83.7 | 1.5 | 0.33 | 98 | Dose-dependent effect | – | – | –
4 | CC(=O)O[C@@H]1[C@H]2[C@@H](OC(=O)CC(C)C)[C@@H](C)C[C@]2(OC(C)=O)C(=O)/C(C)=C/[C@@H]2[C@H](CC[C@]13CO3)C2(C)C | 66.8 | 92.5 | 7.8 | – | 0.43 | – | – | 22.6 | – | –
5 | C/C1=C\[C@@H]2[C@H](CC[C@]3(CO3)[C@H](OC(=O)Cc3ccccc3)[C@H]3[C@@H](OC(=O)Cc4ccccc4)[C@@H](C)C[C@]3(O)C1=O)C2(C)C | 111 | 123 | 73.4 | 3.9 | 1.38 | 80.8 | Dose-dependent effect | – | – | –
6 | CCCC(=O)O[C@@H]1[C@@H]2[C@@H](OC(C)=O)[C@]3(CC[C@H]4[C@@H](/C=C(\C)C(=O)[C@@]2(OC(C)=O)C[C@@H]1C)C4(C)C)CO3 | 46.4 | 79.4 | 74.3 | 8 | 0.2 | 96.9 | Dose-dependent effect | – | Active | Active
7 | CC(=O)O[C@@H]1[C@@H]2[C@@H](OC(C)=O)[C@]3(CC[C@H]4[C@@H](/C=C(\C)C(=O)[C@@]2(OC(C)=O)C[C@@H]1C)C4(C)C)CO3 | 79.3 | 93.5 | 1 | – | 0.24 | – | – | 35 | – | –
8 | C/C1=C\[C@@H]2[C@H](CC[C@]3(CO3)[C@H](OC(=O)c3ccccc3)[C@H]3[C@@H](OC(=O)c4ccccc4)[C@@H](C)C[C@]3(O)C1=O)C2(C)C | 68 | 73.3 | 22.9 | 2 | 0.24 | – | – | – | – | –
9 | CCC(=O)O[C@@H]1[C@@H]2[C@@H](OC(C)=O)[C@]3(CC[C@H]4[C@@H](/C=C(\C)C(=O)[C@@]2(OC(C)=O)C[C@@H]1C)C4(C)C)CO3 | 41.6 | 43 | 1 | – | 0.05 | – | – | 58.6 | – | –
10 | C/C1=C\[C@@H]2[C@H](CC[C@]3(CO3)[C@H](O)[C@H]3[C@@H](OC(=O)/C=C/c4ccccc4)[C@@H](C)C[C@]3(O)C1=O)C2(C)C | 108 | 105 | 7.4 | 3.7 | 1.4 | – | – | – | – | –
11 | C/C1=C\[C@@H]2[C@H](CC[C@]3(CO3)[C@H](OC(=O)c3ccccc3)[C@H]3[C@@H](OC(=O)c4ccccc4)[C@@H](C)C[C@]3(OC(=O)c3ccccc3)C1=O)C2(C)C | 40.4 | 59 | 35.2 | 1.7 | 0.79 | – | – | – | – | –
12 | C/C1=C\[C@@H]2[C@H](CC[C@]3(CO3)[C@H](O)[C@H]3[C@@H](O)[C@@H](C)C[C@]3(O)C1=O)C2(C)C | 80.9 | 89.2 | 1.5 | – | 0.66 | – | – | 14.8 | – | –
13 | CC(=O)O[C@@H]1[C@H]2[C@@H](OC(=O)c3ccccc3)[C@@H](C)C[C@]2(OC(C)=O)C(=O)/C(C)=C/[C@@H]2[C@H](CC[C@]13CO3)C2(C)C | 50.4 | 63.3 | 80.6 | 63.4 | 0.27 | 102.9 | Dose-dependent effect | – | Active | Active
14 | COc1ccc(C(=O)O[C@@H]2[C@@H]3[C@@H](OC(=O)c4ccc(OC)cc4)[C@]4(CC[C@H]5[C@@H](/C=C(\C)C(=O)[C@@]3(O)C[C@@H]2C)C5(C)C)CO4)cc1 | 76 | 86.8 | 23.3 | 3 | 0.36 | – | – | – | – | –
